Consider eight compounds from PubChem BioAssay (NCI).

Molecules are shown by their SMILES.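 Cells were grown in 96-well plates and exposed to each compound for 48 hours at five concentrations; endpoints were interpolated linearly between bracketing concentrations, or set to the highest concentration if not reached. GI50 = concentration required for 50% inhibition of growth. Definition used: TGI = concentration required for complete inhibition of growth.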

Test in all cases: NCI-60 cell line screen, 48 h
Assay [1] has as its system SF-268 CNS.
Assay [2] has as its system MDA-MB-435.
Assay [3] deals with MCF7 breast.
In assay [4] the test system is OVCAR-4 ovarian.
Assay [5] has as its system SK-MEL-2 melanoma.
The test system of assay [6] is SK-MEL-28 melanoma.
In assay [7] the test system is SW-620 colon.
The test system of assay [8] is LOX IMVI melanoma.
For assay [9], the system named is HOP-92 NSCLC.
The test system of assay [10] is SR leukemia.

As for `Cc1ncc(C(=O)Nc2ccc(CN3CCN(C)CC3)c(C(F)(F)F)c2)cc1C#Cc1cnc(N)cc1C#N`, the GI50 in assay [1] is 605 nM; in assay [2], 84 nM; in [3], 1690 nM; in [4] it was 144 nM; in assay [5] it was 232 nM; in [6], 58.4 nM. Besides, the GI50 in [7] is 802 nM; in assay [8], 70.9 nM; in assay [9] it was 91.1 nM; in assay [10], 406 nM. The TGI in assay [1] was found to be 3330 nM; in [2], 1610 nM; in assay [3] it was 4480 nM; in assay [4], 2640 nM; in assay [5], 1030 nM; in [6], 1690 nM. Moreover, the TGI turned out to be 3200 nM in [7], 800 nM in assay [8], 1380 nM in assay [9] and 6270 nM in assay [10].

For the compound `CCN1CCN(CC(=O)N2c3cccc4cccc(c34)N(C(=O)CN3CCN(CC)CC3)C2c2cn(-c3ccccc3)nc2-c2cccc([N+](=O)[O-])c2)CC1`, the GI50 in [1] was 1670 nM; in assay [2], 1860 nM; in assay [3] it was 1620 nM; in assay [4], 1790 nM; in assay [5] it was 1840 nM; in [6], 1750 nM. Besides, the GI50 in assay [7] is 1730 nM; in assay [8], 1620 nM; in assay [9] it was 671 nM; in assay [10], 267 nM. Further, the TGI in assay [1] is 3470 nM; in assay [2], 3540 nM; in assay [3] it was 3240 nM; in assay [4] it was 3710 nM; in [5] it was 3580 nM; in assay [6], 3200 nM. In addition, the TGI in assay [7] came out at 3410 nM; in assay [8] it was 3110 nM; in assay [9], 2490 nM; in assay [10] it was 800 nM.

Consider `CC(C)CC(NC(=O)OC(C)(C)C)C(=O)Nc1ccc(Nc2nc(F)nc(-c3c4ccccc4cn3C)n2)cc1` (stereo not given), for which the TGI in assay [1] is above 100000 nM; in assay [2], above 100000 nM; in [3] it was 31400 nM; in [4], above 100000 nM; in assay [5], above 100000 nM; in [6], above 100000 nM. Moreover, the TGI in assay [7] is above 54400 nM; in assay [8], above 100000 nM; in assay [9] it was above 100000 nM; in assay [10], above 74100 nM.

Turning to `Cc1cnc(C(=O)NNc2nc3sc4c(c3c(=O)n2C)C(C)CCC4)cn1` (stereo not given), the GI50 is 280 nM in assay [1]; 751 nM in [2]; 290 nM in assay [3]; 163 nM in [4]; 1020 nM in assay [5]; 537 nM in assay [6]. In addition, the GI50 in assay [7] was 408 nM; in assay [8], 304 nM; in assay [9], 724 nM; in assay [10] it was 237 nM. In addition, the TGI in assay [1] stood at 6650 nM; in assay [2], 7260 nM; in [3] it was 1700 nM; in assay [4], 2090 nM; in [5] it was 8880 nM; in assay [6] it was 4600 nM. Moreover, the TGI is 6660 nM in [7], 1750 nM in assay [8], 4570 nM in assay [9] and above 100000 nM in [10].

In the case of `Cc1cnc(C(=O)Nc2nc3ccc(S(=O)(=O)Nc4ccc(C5(C(F)(F)F)CC5)cc4)cc3[nH]2)cn1`, the GI50 in [1] is 733 nM; in assay [2], 57.1 nM; in assay [3], 287 nM; in [4], 2070 nM; in assay [5], 784 nM; in assay [6] it was 1190 nM. Also, the GI50 in assay [7] was 369 nM; in assay [8], 539 nM; in assay [9] it was 387 nM; in assay [10], 77.7 nM. The TGI turned out to be 11900 nM in [1]; 238 nM in assay [2]; 5680 nM in assay [3]; 9260 nM in assay [4]; 20100 nM in assay [5]; 12200 nM in assay [6]. The TGI in [7] was 5920 nM; in assay [8], 5600 nM; in assay [9], 6460 nM; in [10], above 39500 nM.

For `CN(C)c1ccc(/C=C/c2cc[n+](C)c(/C=C/c3ccc(N(C)C)cc3)c2)cc1`, the GI50 in assay [1] was 399 nM; in assay [2] it was 346 nM; in [3], 272 nM; in assay [4] it was 225 nM; in [5] it was 256 nM; in assay [6] it was 667 nM. The GI50 in assay [7] was 336 nM; in [8], 356 nM; in [9], 174 nM; in assay [10], 309 nM. Further, the TGI stood at 6260 nM in [1]; 1320 nM in assay [2]; 1130 nM in assay [3]; 1010 nM in assay [4]; 713 nM in assay [5]; 2700 nM in [6]. The TGI stood at 5600 nM in assay [7], 1450 nM in [8], 655 nM in [9] and 2450 nM in assay [10].

On to `C=C1CC2(OC1=O)C(=O)Nc1ccccc12` (stereo not given), for which the GI50 in [1] is 6720 nM; in [2], 3570 nM; in assay [3] it was 2140 nM; in assay [4], 1500 nM; in assay [5], 13400 nM; in assay [6], 1990 nM. For the same compound, the GI50 in assay [7] is 1380 nM; in assay [8], 1560 nM; in [9], 1280 nM; in assay [10], 1320 nM. Also, the TGI in [1] stood at 26000 nM; in assay [2] it was 14900 nM; in assay [3], 6170 nM; in assay [4], 3370 nM; in assay [5], 30000 nM; in [6], 4260 nM. The TGI stood at 3220 nM in assay [7], 3030 nM in [8], 2750 nM in assay [9] and 6030 nM in assay [10].

Consider `O=C(O)C1CC(O)CN1` (stereo not given), for which the TGI in assay [1], in assay [2], in [3], in [4], in [5] and in assay [6] was above 100000 nM throughout. For the same compound, the TGI in assay [7], in [8], in assay [9] and in [10] was above 100000 nM each time.
